Results as given in publication PMC7970798 (Computational and Structural Biotechnology Journal, 2021).
No end group written: not given here.

Target: PALS1 F318W (Homo sapiens, UniProt Q8N3R9, F318W)
Experiment: biochemical
Assay type: binding

Chain of PALS1 F318W (Q8N3R9 256-336 F318W limits assumed): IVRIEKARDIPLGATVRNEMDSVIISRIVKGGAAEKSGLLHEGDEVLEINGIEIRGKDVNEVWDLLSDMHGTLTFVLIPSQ

## VKNLNSSRVPDLLV [SARS-CoV-2, VKNLNSSRVPDLLV]
  Kd: 29 ± 4 µM
